Results published in US20120077836A1, “METHODS OF ADMINISTERING (4AR,10AR)-1-N-PROPYL-1,2,3,4,4A,5,10,10A-OCTAHYDROBENZO [G] QUINOLINE-6,7-DIOL AND RELATED COMPOUNDS ACROSS THE ORAL MUCOSA, THE NASAL MUCOSA OR THE SKIN AND PHARMACEUTICAL COMPOSITIONS THEREOF” (priority 2009, published 2012).

What was measured:
MPTP treated marmosets = assay: Anti-parkinsonian effects in MPTP-treated common marmosets; assay type: in vivo, common marmoset; design: disability score (120 min) / disability score (180 min) / disability score (240 min) / disability score (300 min) / disability score (360 min) / disability score (420 min) / disability score (60 min): scale not given here
Procedure: The experiments were conducted using 6 MPTP treated marmosets (2.0 mg/kg daily for up to 5 consecutive days dissolved in sterile 0.9% saline solution). All the animals had previously been treated with L-DOPA (12.5 mg/kg p.o., plus carbidopa 12.5 mg/kg p.o.) administered daily for up to 30 days in order to induce dyskinesia. […] Domperidone was administered 60 min before any of the test compounds. Domperidone is an antidopaminergic drug that suppresses nausea and vomiting. Locomotor activity was assessed using test cages that are comprised of 8 photo-electric switches comprised of 8 infra-red beams which are strategically placed in the cage and interruption of a beam is recorded as one count. […] The assessment of motor disability was performed by a trained observer blinded to the treatment.
The dose chosen for this challenge is at the top of the dose response curve for this drug.

[1] = test system: rats with unilateral 6-OHDA lesions; conditions: rat, in vivo, sc
[2] = target: T1, human recombinant D1 receptor (Homo sapiens, UniProt P21728); assay: D1 cAMP assay; assay type: cell-based; conditions: read-out: intrinsic activity (efficacy)
T1 construct: expressed in transfected cells
T1 sequence (P21728 whole entry): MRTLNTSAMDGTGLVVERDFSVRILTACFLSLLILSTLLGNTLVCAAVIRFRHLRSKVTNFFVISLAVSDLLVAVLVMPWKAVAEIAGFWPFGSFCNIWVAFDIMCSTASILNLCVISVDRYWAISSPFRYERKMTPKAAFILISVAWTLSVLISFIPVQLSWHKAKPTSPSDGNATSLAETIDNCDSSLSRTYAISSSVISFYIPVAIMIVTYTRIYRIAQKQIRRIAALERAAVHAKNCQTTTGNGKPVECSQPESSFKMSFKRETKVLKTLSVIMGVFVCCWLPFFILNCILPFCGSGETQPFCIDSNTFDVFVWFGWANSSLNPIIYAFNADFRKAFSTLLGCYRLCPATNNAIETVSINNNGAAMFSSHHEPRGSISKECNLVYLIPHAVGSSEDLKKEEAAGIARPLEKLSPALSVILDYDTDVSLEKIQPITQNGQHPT
Procedure: The ability of the compounds to either stimulate or inhibit the D1 receptor mediated cAMP formation in CHO cells stably expressing the human recombinant D1 receptor was measured as follows. Cells were seeded in 96-well plates at a concentration of 11000 cells/well 3 days prior to the experiment.

human D2 receptor = target: T2, human D2 receptor (Homo sapiens, UniProt P14416); assay: D2 cAMP assay; assay type: cell-based; conditions: read-out: intrinsic activity (efficacy)
T2 construct: expressed in transfected cells; host or cells: CHO cells
T2 sequence (P14416 whole entry): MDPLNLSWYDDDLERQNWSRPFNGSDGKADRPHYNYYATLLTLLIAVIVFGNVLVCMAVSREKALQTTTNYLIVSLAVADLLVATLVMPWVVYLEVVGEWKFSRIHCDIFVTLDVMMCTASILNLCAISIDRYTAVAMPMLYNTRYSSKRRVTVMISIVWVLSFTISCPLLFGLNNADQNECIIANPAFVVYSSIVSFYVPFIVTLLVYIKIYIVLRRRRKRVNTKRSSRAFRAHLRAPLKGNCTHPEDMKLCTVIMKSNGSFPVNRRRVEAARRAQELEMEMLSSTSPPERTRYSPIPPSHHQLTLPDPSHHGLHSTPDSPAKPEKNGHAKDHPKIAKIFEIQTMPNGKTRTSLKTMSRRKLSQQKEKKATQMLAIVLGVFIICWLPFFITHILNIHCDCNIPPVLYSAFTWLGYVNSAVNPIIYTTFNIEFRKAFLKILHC
Procedure: The ability of the compounds to either stimulate or inhibit the D2 receptor mediated inhibition of cAMP formation in CHO cells transfected with the human D2 receptor was measured as follows. Cells were seeded in 96 well plates at a concentration of 8000 cells/well 3 days prior to the experiment. On the day of the experiment the cells were washed once in preheated G buffer (1 mM MgCl2, 0.9 mM CaCl2, 1 mM IBMX in PBS) and the assay was initiated by addition of 100 micro-1 of a mixture of 1 micro-M quinpirole, 10 microM forskolin and test compound in G buffer (antagonism) or 10 micro-M forskolin and test compound in G buffer (agonism).

[3] = test system: rats with unilateral 6-OHDA lesions; assay: D1/D2 dissection, rotation response in rats with unilateral 6-OHDA lesions; assay type: in vivo, rat; conditions: 6-OHDA rats; for MED (minimum effective dose to induce rotation) / MEDNemonapride (MED to overcome Nemonapride block): dosed SC; for MEDNemonapride (MED to overcome Nemonapride block): * = rotations could not be blocked by SCH23390
Text: Rats weighing 200-250 g were subjected to unilateral 6-OHDA lesions. […] Nemonapride is a D2 antagonist that blocks the D2 receptors, therefore any observed rotations would be dependent upon activity at the D1 receptors.

MPTP/AMPT mouse model = assay: Superiority model, hypomotility in the MPTP/AMPT mouse model; assay type: in vivo
Procedure: MPTP (1-methyl-4-phenyl-1,2,3,6-tetrahydropyridine) is a neurotoxin that causes permanent symptoms of Parkinson's disease by killing certain neurons in the substantia nigra of the brain. It is used to study the disease in monkeys and mice. […] Various compounds (all dosed subcutaneously) were tested for their ability to reverse the motility deficits produced in this model.

reserpinesed rats = assay: Reversal of reserpine-induced hypomotility in rats; assay type: in vivo, rat
Procedure: Rats weighing ca. 200 g were treated with reserpine (5 mg/kg subcutaneously as a solution in 20% aqueous solutol for which pH was adjusted to 4 with methanesulfonic acid). […] Group 1: treated with 20% ethanol in 0.7% aqueous sodium chloride subcutaneously.

[4] = test system: rats with unilateral 6-OHDA lesions; assay: Rotation response in 6-OHDA rats after buccal delivery; assay type: in vivo, rat
6-OHDA rats = assay: Reversal of L-DOPA-induced dyskinesias in 6-OHDA rats (AIMS); assay type: in vivo, rat; conditions: after 7 days L-DOPA/Benserazide priming; once daily days 1-10: L-DOPA/Benserazide 6/15 mg/kg SC; compound 10 0.0013 mg/kg SC; pramipexole […] SC
Text: Animals were observed on Days 1, 3 and 5 and AIMS were scored. The day 5 scores were then used to separate the animals into three groups of 6 animals each. Group 1 continued with daily L-DOPA treatment. […] Treatment continued daily for 10 days and the amount of dyskinesia was scored on days 1, 5, 9 and 10.

[5] = Table 4e direct comparison, AMPT 250 mg/kg SC, apomorphine 1 mg/kg SC, pramipexole 1 mg/kg SC, compound 10 0.030 mg/kg SC, controls: vehicle 509, AMPT/vehicle 2

SMILES: N[C@@H](Cc1ccc(O)c(O)c1)C(=O)O [L-DOPA, reference compound]
- disability score (60 min) (MPTP treated marmosets; 12.5 mg/kg PO): 10.0
- disability score (120 min) (MPTP treated marmosets; 12.5 mg/kg PO): 2.0
- disability score (180 min) (MPTP treated marmosets; 12.5 mg/kg PO): 1.8
- disability score (240 min) (MPTP treated marmosets; 12.5 mg/kg PO): 3.2
- disability score (300 min) (MPTP treated marmosets; 12.5 mg/kg PO): 5.0
- disability score (360 min) (MPTP treated marmosets; 12.5 mg/kg PO): 9.7
- disability score (420 min) (MPTP treated marmosets; 12.5 mg/kg PO): 11.0
- effect on locomotor activity and motor disability (MPTP treated marmosets; L-DOPA 12.5 mg/kg p.o., compound 10 0.001 or 0.01 mg/kg SC): increased locomotor activity and reversed motor disability
- dyskinesia score (AIMS) [1]: about 65

SMILES: CN1CCc2cccc3c2[C@H]1Cc1ccc(O)c(O)c1-3 [apomorphine, reference compound]
- Emax [2]: 86%
- Emax (human D2 receptor): 100%
- MED (minimum effective dose to induce rotation) [3]: 0.010 mg/kg
- MEDNemonapride (MED to overcome Nemonapride block) [3]: 0.030 mg/kg
- reversal of motility deficits (MPTP/AMPT mouse model; MPTP/AMPT mice, all dosed subcutaneously): restored locomotion in the mice in a dose-dependent manner
- activity count (0.5-1.5 h) (MPTP/AMPT mouse model; Table 4b, AMPT 250 mg/kg SC at -1.5 h, 1.0 mg/kg SC, controls: vehicle 694, AMPT/vehicle 1): 912
- activity count (0.5-1.5 h) (MPTP/AMPT mouse model; [5]): 904
- reversal of reserpine-induced hypomotility (reserpinesed rats; administered subcutaneously): reversed the reserpine-induced hypomotility
- activity count (reserpinesed rats; reserpine 5 mg/kg SC 23-24 h before, apomorphine 1 mg/kg SC, compound 10 0.01 mg/kg SC, over 3 hours, controls: vehicle 486, reserpine/vehicle 17): 440
- mean number of rotations over 3 h ([4]; apomorphine 0.1 mg/kg SC, compound 10 0.01 mg/kg buccally): 1123
- induction of rotation ([4]; apomorphine subcutaneous, compound 10 buccal): induced rotations
- dyskinesia score (AIMS) [1]: about 65

SMILES: CC(C)C[C@H]1C(=O)N2CCC[C@H]2[C@]2(O)O[C@](NC(=O)[C@@H]3C=C4c5cccc6[nH]c(Br)c(c56)C[C@H]4N(C)C3)(C(C)C)C(=O)N12 [bromocriptine]
- activity count (0.5-1.5 h) (MPTP/AMPT mouse model; Table 4d, AMPT 250 mg/kg SC, 1 mg/kg SC, controls: vehicle 336, AMPT/vehicle 16): 25
- activity count (0.5-1.5 h) (MPTP/AMPT mouse model; Table 4d, AMPT 250 mg/kg SC, 5 mg/kg SC): 17
- activity count (0.5-1.5 h) (MPTP/AMPT mouse model; Table 4d, AMPT 250 mg/kg SC, 10 mg/kg SC): 36

SMILES: CCCN[C@H]1CCc2nc(N)sc2C1 [pramipexole]
- MED (minimum effective dose to induce rotation) [3]: 0.1 mg/kg
- MEDNemonapride (MED to overcome Nemonapride block) [3]: 1.0 mg/kg
- mean AIM score (days 1, 5, 9, 10) (6-OHDA rats): 58
- activity count (0.5-1.5 h) (MPTP/AMPT mouse model; [5]): 176

SMILES: CCCN(CCc1cccs1)[C@H]1CCc2c(O)cccc2C1 [rotigotine]
- D1 component in rotation model ([3]; SC): could not be observed
- MED (minimum effective dose to induce rotation) [3]: 0.030 mg/kg
- MEDNemonapride (MED to overcome Nemonapride block) [3]: 0.30 mg/kg
